Results published in US12037375B2, “Protein variant and composition for treating neurodegenerative disease using the same” (KOREA UNIVERSITY RESEARCH AND BUSINESS FOUNDATION, priority 2021, dated 2024).

Tested on: SH-SY-5Y neuroblastoma cells
Test: Cell viability by MTT assay
Assay type: cell-based
Conditions: FIG. 4
Method: SH-SY-5Y neuroblastoma cells were purchased from the Korean Cell Line Bank (Seoul, South Korea) and incubated in a 1:1 mixture of Dulbecco's modified eagle medium/F-12 nutrient mixture ham (DMEM/F-12; WelGENE) supplemented with 10% fetal bovine serum (FBS; Capricorn Scientific GmbH, Ebsdorfergrund, Germany) and 1% antibiotic (10,000 U/mL penicillin G, 10,000 μg/mL streptomycin and 25 μg/mL amphotericin B; Hyclone, Logan, UT, USA). The antibiotic was sterilized through a 0.2 μm filter before use and the cells were incubated at 37° C. under humid conditions including 5% CO2.
Specifically, 15,000 cells were grown in each well of a 96-well plate and incubated for 24 hours. […] Then, the MTT solution was added to the medium and incubated at 37° C. for 3 hours to form the MTT-formazan product. The amount of the product was quantified as the extent of absorption at a wavelength of 540 nm.
Each test was conducted on three samples at a time and the entire test was repeated three times to ensure reproducibility.
Specifically, 15,000 cultured neuroblastoma were added with each of 1 uM of a monomer protein and 1 uM of a fibrous protein, and incubated for 2 days, and then the change in cytotoxicity was measured using MTT reagent.

Q: `CC[C@H](C)[C@H](NC(=O)[C@H](C)NC(=O)CNC(=O)[C@H](CCCCN)NC(=O)[C@H](CC(N)=O)NC(=O)[C@H](CO)NC(=O)CNC(=O)[C@@H](NC(=O)[C@H](CC(=O)O)NC(=O)[C@H](CCC(=O)O)NC(=O)[C@H](C)NC(=O)[C@H](Cc1ccccc1)NC(=O)[C@H](CC(N)=O)NC(=O)[C@@H](NC(=O)[C@H](CC(C)C)NC(=O)[C@H](CCCCN)NC(=O)[C@H](CCC(N)=O)NC(=O)[C@H](Cc1c[nH]cn1)NC(=O)[C@H](Cc1c[nH]cn1)NC(=O)[C@@H](NC(=O)[C@H](CCC(=O)O)NC(=O)[C@H](Cc1ccc(O)cc1)NC(=O)CNC(=O)[C@H](CO)NC(=O)[C@H](CC(=O)O)NC(=O)[C@H](Cc1c[nH]cn1)NC(=O)[C@H](CCCNC(=N)N)NC(=O)[C@H](Cc1ccccc1)NC(=O)[C@H](CCC(=O)O)NC(=O)[C@H](C)NC(=O)[C@@H](N)CC(=O)O)C(C)C)C(C)C)C(C)C)C(=O)N[C@@H](CC(N)=O)C(=O)NCC(=O)N[C@@H](CC(N)=O)C(=O)N[C@@H](CCSC)C(=O)N[C@H](C(=O)NCC(=O)NCC(=O)N[C@H](C(=O)N[C@H](C(=O)N[C@H](C(=O)N[C@@H](CC(N)=O)C(=O)O)[C@@H](C)CC)C(C)C)C(C)C)C(C)C` was tested. Which cytotoxicity did it give?
A: Its cytotoxicity is “reduced cytotoxicity”.
